In patent US5011833A, “Novel derivatives of 6,11-dihydro-dibenzo(C,F)(1,2,5)-thiadiazepine 5,5-dioxide, salts thereof and appropriate processes for the preparation thereof” (A. Menarini Industrie Farmaceutiche Riunite, priority 1988, dated 1991):
Where two headings read alike, the source gives them in different places.

Key:
duodenal ulcers = assay: effect on duodenal ulcers; settings: in vivo
[1] = acute oral toxicity (LD-50); settings: mouse, in vivo
anticholinergic effect = settings: in vivo
[2] = system: hypothermia induced by apomorphine; assay: inhibition of hypothermia induced by apomorphine (apomorphine test); settings: Mus musculus, po, 1 h, read-out: Hypothermia inhibition from Apo16: ED-50
motor activity = settings: in vivo
convulsions = settings: in vivo
blood pressure = settings: in vivo
cardio-toxic = settings: in vivo
[3] = Swiss male mice, after 14 days, read-out: LD-50

SMILES | LD50 at 336 h [1, 3] | ED50 [2] | further results
CN(C)CC(=O)N1c2ccccc2N(C)S(=O)(=O)c2ccccc21 [Compound 1, 6-Methyl-6,11-dihydro-11-(N,N-dimethylaminoacetyl)dibenzo[c,f][1,2,5]thiadiazepine 5,5-dioxide] | 1500 to 2000 mg/kg | 4 to 15 mg/kg | duodenal ulcers (duodenal ulcers): reduces duodenal ulcers; LD50 at 336 h ([1]; mice, read-out: oral LD-50): 1920 mg/kg; anticholinergic effect (anticholinergic effect): induces very weak anticholinergic effects; motor activity (motor activity): does not alter the motor activity; convulsions (convulsions): does not induce convulsions; blood pressure (blood pressure): does not alter the blood pressure; cardio-toxicity (cardio-toxic): is not cardio-toxic
CNCC(=O)N1c2ccccc2N(C)S(=O)(=O)c2ccccc21 [Compound 2] | 750 to 1000 mg/kg | 4 to 15 mg/kg | –
CCN(CC)CC(=O)N1c2ccccc2N(C)S(=O)(=O)c2ccccc21 [Compound 3, 6-Methyl-6,11-dihydro-11-(N,N-diethylamino-acetyl)dibenzo[c,f][1,2,5]thiadiazepine 5,5-dioxide] | > 2000 mg/kg | 15 to 25 mg/kg | –
CN(C)CCC(=O)N1c2ccccc2N(C)S(=O)(=O)c2ccccc21.Cl [Compound 4, 6-Methyl-6,11-dihydro-11-[3-(N,N-dimethylamino)propionyl]dibenzo[c,f][1,2,5]thiadiazepine 5,5-dioxide hydrochloride] | 500 to 700 mg/kg | 15 to 25 mg/kg | –
CN(C)CC(=O)N1c2ccc(Cl)cc2N(C)S(=O)(=O)c2ccccc21 [Compound 5, 8-chloro-6-methyl-6,11-dihydro-11-(N,N-dimethylamino-acethyl)-dibenzo[c,f][1,2,5]thiadiazepine 5,5-dioxide] | 1000 to 1500 mg/kg | 15 to 25 mg/kg | –
Cc1ccc2c(c1)N(C(=O)CN(C)C)c1ccccc1S(=O)(=O)N2C [Compound 6, 6,9-dimethyl-6,11-dihydro-11-(N,N-dimethylaminoacetyl)-dibenzo[c,f][1,2,5]thiadiazepine 5,5-dioxide] | 1500 to 2000 mg/kg | 4 to 15 mg/kg | –
CN(C)CCCN1c2ccccc2CCc2ccccc21 [imipramine, reference compound] | – | 4 to 15 mg/kg | –
CN(C)CCCN1c2ccccc2N(C)S(=O)(=O)c2ccccc21 [reference compound] | – | – | LD50 at 336 h ([1]; mice, read-out: oral LD-50): 655 mg/kg; anticholinergic effect (anticholinergic effect): possesses anticholinergic effect; motor activity (motor activity): increases the motor activity; convulsions (convulsions): induces convulsions; blood pressure (blood pressure): increases the blood pressure
